The text below walks through data of US9896435B2, “N-pyrrolidinyl,N′-pyrazolyl-urea, thiourea, guanidine and cyanoguanidine compounds as TrkA kinase inhibitors” (Array BioPharma Inc., priority 2012, dated 2018).

This test has as its target His-tagged recombinant human TrkA (Homo sapiens (Human), UniProt P04629). The experiment in a line: TrkA LanthaScreen Eu Kinase Binding Assay. The settings on record: averaged IC50; LanthaScreen binding assay of Example A; read-out: TrkA Enzyme IC50. As to the method: TrkA binding activity was determined in a TrkA LanthaScreen™ Eu Kinase Binding Assay. 5 nM His-tagged recombinant human TrkA (6HIS tagged cytoplasmic domain from Invitrogen, Catalog No. PV3144) was incubated with 4 nM Alexa-Fluor® Tracer 236 (Invitrogen Cat. No. PV5592), 2 nM biotinylated anti-His (Invitrogen Cat. No. PV6090), and 2 nM europium-labeled Streptavidin (Invitrogen Cat. No. PV5899), in buffer (25 mM MOPS, pH 7.5, 5 mM MgCl2, 0.005% Triton X-100). Three fold serial dilutions of compounds of the invention in DMSO were added to a final percentage of 2% DMSO. After 60-minute incubation at 22° C., the reaction was measured using the EnVision mutlimode plate reader (PerkinElmer) via TR-FRET dual wavelength detection at […]. The percent of control was calculated using a ratiometric emission factor. The IC50 values were determined by fitting a four parameter model to the percent of control data.
Table A provides averaged IC50 values for compounds of the invention when tested in the assay of Example A, where A represents an averaged IC50 value<100 nM.

The structures appear in SMILES notation.

His-tagged recombinant human TrkA, sequence (P04629 440-796): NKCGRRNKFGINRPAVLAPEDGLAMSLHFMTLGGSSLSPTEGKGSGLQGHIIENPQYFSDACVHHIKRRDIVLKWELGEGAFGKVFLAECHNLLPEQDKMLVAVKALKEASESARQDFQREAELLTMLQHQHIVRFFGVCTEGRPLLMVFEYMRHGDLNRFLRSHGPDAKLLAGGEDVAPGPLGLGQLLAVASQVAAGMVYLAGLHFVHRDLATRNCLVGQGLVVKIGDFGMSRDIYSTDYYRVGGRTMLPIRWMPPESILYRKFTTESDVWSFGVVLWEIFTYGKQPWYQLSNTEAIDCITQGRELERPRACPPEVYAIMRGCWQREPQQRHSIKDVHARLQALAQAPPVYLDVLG

Turning to `COCCN1C[C@@H](NC(=O)Nc2c(C)c(-c3ccc(=O)n(C)n3)nn2-c2ccccc2)[C@H](c2cc(F)cc(F)c2)C1` [Example 19, 1-((3S,4R)-4-(3,5-difluorophenyl)-1-(2-methoxyethyl)pyrrolidin-3-yl)-3-(4-methyl-3-(1-methyl-6-oxo-1,6-dihydropyridazin-3-yl)-1-phenyl-1H-pyrazol-5-yl)urea], the IC50 (as a rule, the midpoint of a concentration-inhibition curve) was under 100 nM. With `COCCN1C[C@@H](NC(=O)Nc2c(C)c(-c3cnc(C4CC4)nc3)nn2-c2ccccc2)[C@H](c2ccc(F)cc2)C1` [Example 11, 1-(3-(2-cyclopropylprimidin-5-yl)-4-methyl-1-phenyl-1H-pyrazol-5-yl)-3-((3S,4R)-4-(4-fluorophenyl)-1-(2-methoxyethyl)pyrrolidin-3-yl)urea], the IC50 is under 100 nM. For the compound `CCOc1ncc(-c2nn(-c3ccccc3)c(NC(=O)N[C@@H]3CN(CCOC)C[C@H]3c3cc(F)cc(F)c3)c2C)cn1` [Example 16, 1-((3S,4R)-4-(3,5-difluorophenyl)-1-(2-methoxyethyl)pyrrolidin-3-yl)-3-(3-(2-ethoxypyrimidin-5-yl)-4-methyl-1-phenyl-1H-pyrazol-5-yl)urea], the IC50 was under 100 nM. `COCCN1C[C@@H](NC(=O)Nc2c(C)c(-c3cccnc3C)nn2-c2ccccc2)[C@H](c2ccc(F)c(F)c2)C1` [Example 4, 1-((3S,4R)-4-(3,4-difluorophenyl)-1-(2-methoxyethyl)pyrrolidin-3-yl)-3-(4-methyl-3-(2-methylpyridin-3-yl)-1-phenyl-1H-pyrazol-5-yl)urea]: the half-inhibitory concentration (IC50) is under 100 nM. Take `COCCN1C[C@@H](NC(=O)Nc2c(C)c(-c3cnc(NC4CC4)nc3)nn2-c2ccccc2)[C@H](c2ccc(F)cc2)C1` [Example 21, 1-(3-(2-(cyclopropylamino)pyrimidin-5-yl)-4-methyl-1-phenyl-1H-pyrazol-5-yl)-3-((3S,4R)-4-(4-fluorophenyl)-1-(2-methoxyethyl)pyrrolidin-3-yl)urea di-trifluoroacetate]: the IC50 is under 100 nM. To `COCCN1C[C@@H](NC(=O)Nc2c(C)c(-c3cccnc3F)nn2-c2ccccc2)[C@H](c2ccc(F)c(F)c2)C1` [Example 3, 1-((3S,4R)-4-(3,4-difluorophenyl)-1-(2-methoxyethyl)pyrrolidin-3-yl)-3-(3-(2-fluoropyridin-3-yl)-4-methyl-1-phenyl-1H-pyrazol-5-yl)urea] belongs under 100 nM; to `COCCN1C[C@@H](NC(=O)Nc2c(C)c(-c3cnc(OC)nc3)nn2-c2ccccc2)[C@H](c2cc(F)cc(F)c2)C1` [Example 12, 1-((3S,4R)-4-(3,5-difluorophenyl)-1-(2-methoxyethyl)pyrrolidin-3-yl)-3-(3-(2-methoxypyrimidin-5-yl)-4-methyl-1-phenyl-1H-pyrazol-5-yl)urea], under 100 nM.

On to `COCCN1C[C@@H](NC(=O)Nc2c(C)c(-c3cnc(C)nc3)nn2-c2ccccc2)[C@H](c2ccc(F)cc2)C1` [Example 13, 1-((3S,4R)-4-(4-fluorophenyl)-1-(2-methoxyethyl)pyrrolidin-3-yl)-3-(4-methyl-3-(2-methylpyrimidin-5-yl)-1-phenyl-1H-pyrazol-5-yl)urea], for which the IC50 is under 100 nM. In the case of `COCCN1C[C@@H](NC(=O)Nc2c(C)c(-c3ccc(=O)n(C)c3)nn2-c2ccccc2)[C@H](c2cccc(F)c2)C1` [Example 27, 1-((3S,4R)-4-(3-fluorophenyl)-1-(2-methoxyethyl)pyrrolidin-3-yl)-3-(4-methyl-3-(1-methyl-6-oxo-1,6-dihydropyridin-3-yl)-1-phenyl-1H-pyrazol-5-yl)urea], the IC50 was under 100 nM. To `COCCN1C[C@@H](NC(=O)Nc2c(C)c(-c3ccc(=O)n(C)n3)nn2-c2ccccc2)[C@H](c2ccc(F)c(F)c2)C1` [Example 17, 1-((3S,4R)-4-(3,4-difluorophenyl)-1-(2-methoxyethyl)pyrrolidin-3-yl)-3-(4-methyl-3-(1-methyl-6-oxo-1,6-dihydropyridazin-3-yl)-1-phenyl-1H-pyrazol-5-yl)urea] belongs under 100 nM; to `COCCN1C[C@@H](NC(=O)Nc2c(C)c(-c3ccc(=O)n(C)c3)nn2-c2ccccc2)[C@H](c2cc(F)cc(Cl)c2)C1` (relative stereo) [Example 24, 1-(trans-4-(3-chloro-5-fluorophenyl)-1-(2-methoxyethyl)pyrrolidin-3-yl)-3-(4-methyl-3-(1-methyl-6-oxo-1,6-dihydropyridin-3-yl)-1-phenyl-1H-pyrazol-5-yl)urea], under 100 nM. Consider `COCCN1C[C@@H](NC(=O)Nc2c(C)c(-c3cnc(NC4CC4)nc3)nn2-c2ccccc2)[C@H](c2ccc(F)c(F)c2)C1` [Example 20, 1-(3-(2-(cyclopropylamino)pyrimidin-5-yl)-4-methyl-1-phenyl-1H-pyrazol-5-yl)-3-((3S,4R)-4-(3,4-difluorophenyl)-1-(2-methoxyethyl)pyrrolidin-3-yl)urea], for which the IC50 is under 100 nM. On to `COCCN1C[C@@H](NC(=O)Nc2c(C)c(-c3cc(C)c(=O)n(C)c3)nn2-c2ccccc2)[C@H](c2ccc(F)c(F)c2)C1` [Example 29, 1-((3S,4R)-4-(3,4-difluorophenyl)-1-(2-methoxyethyl)pyrrolidin-3-yl)-3-(3-(1,5-dimethyl-6-oxo-1,6-dihydropyridin-3-yl)-4-methyl-1-phenyl-1H-pyrazol-5-yl)urea], for which the IC50 was under 100 nM.

In the case of `COCCN1C[C@@H](NC(=O)Nc2c(C)c(-c3cnc(C4CC4)nc3)nn2-c2ccccc2)[C@H](c2ccc(F)c(F)c2)C1` [Example 10, 1-(3-(2-cyclopropylpyrimidin-5-yl)-4-methyl-1-phenyl-1H-pyrazol-5-yl)-3-((3S,4R)-4-(3,4-difluorophenyl)-1-(2-methoxyethyl)pyrrolidin-3-yl)urea], the IC50 is under 100 nM. To `COCCN1C[C@@H](NC(=O)Nc2c(C)c(-c3ccc(OC)nc3)nn2-c2ccccc2)[C@H](c2ccc(F)c(F)c2)C1` [Example 8, 1-((3S,4R)-4-(3,4-difluorophenyl)-1-(2-methoxyethyl)pyrrolidin-3-yl)-3-(3-(6-methoxypyridin-3-yl)-4-methyl-1-phenyl-1H-pyrazol-5-yl)urea] belongs under 100 nM; to `CCOc1ncc(-c2nn(-c3ccccc3)c(NC(=O)N[C@@H]3CN(CCOC)C[C@H]3c3ccc(F)c(F)c3)c2C)cn1` [Example 9, 1-((3S,4R)-4-(3,4-difluorophenyl)-1-(2-methoxyethyl)pyrrolidin-3-yl)-3-(3-(2-ethoxypyrimidin-5-yl)-4-methyl-1-phenyl-1H-pyrazol-5-yl)urea], under 100 nM. To `COCCN1C[C@@H](NC(=O)Nc2c(C)c(-c3ccc(=O)n(C)c3)nn2-c2ccccc2)[C@H](c2ccc(F)c(Cl)c2)C1` (relative stereo) [Example 22, 1-(trans-4-(3-chloro-4-fluorophenyl)-1-(2-methoxyethyl)pyrrolidin-3-yl)-3-(4-methyl-3-(1-methyl-6-oxo-1,6-dihydropyridin-3-yl)-1-phenyl-1H-pyrazol-5-yl)urea] belongs under 100 nM; to `COCCN1C[C@@H](NC(=O)Nc2c(C)c(-c3ccc(=O)n(C)c3)nn2-c2ccccc2)[C@H](c2ccc(Cl)c(F)c2)C1` (relative stereo) [Example 23, 1-(trans-4-(4-chloro-3-fluorophenyl)-1-(2-methoxyethyl)pyrrolidin-3-yl)-3-(4-methyl-3-(1-methyl-6-oxo-1,6-dihydropyridin-3-yl)-1-phenyl-1H-pyrazol-5-yl)urea], under 100 nM. To `COCCN1C[C@@H](NC(=O)Nc2c(C)c(-c3ccc(C)nc3)nn2-c2ccccc2)[C@H](c2ccc(F)c(F)c2)C1` [Example 1, 1-((3S,4R)-4-(3,4-difluorophenyl)-1-(2-methoxyethyl)pyrrolidin-3-yl)-3-(4-methyl-3-(6-methylpyridin-3-yl)-1-phenyl-1H-pyrazol-5-yl)urea] belongs under 100 nM.

On to `COCCN1C[C@@H](NC(=O)Nc2c(C)c(-c3ccc(=O)n(C)c3)nn2-c2ccccc2)[C@H](c2cccc(Cl)c2)C1` (relative stereo) [Example 25, 1-(trans-4-(3-chlorophenyl)-1-(2-methoxyethyl)pyrrolidin-3-yl)-3-(4-methyl-3-(1-methyl-6-oxo-1,6-dihydropyridin-3-yl)-1-phenyl-1H-pyrazol-5-yl)urea], for which the IC50 is under 100 nM.

Consider `COCCN1C[C@@H](NC(=O)Nc2c(C)c(-c3cncc(C)c3)nn2-c2ccccc2)[C@H](c2ccc(F)c(F)c2)C1` [Example 5, 1-((3S,4R)-4-(3,4-difluorophenyl)-1-(2-methoxyethyl)pyrrolidin-3-yl)-3-(4-methyl-3-(5-methylpyridin-3-yl)-1-phenyl-1H-pyrazol-5-yl)urea], for which the IC50 was under 100 nM. With `COCCN1C[C@@H](NC(=O)Nc2c(C)c(S(C)(=O)=O)nn2-c2ccccc2)[C@H](c2ccc(F)c(F)c2)C1` [Example 30, 1-((3S,4R)-4-(3,4-difluorophenyl)-1-(2-methoxyethyl)pyrrolidin-3-yl)-3-(4-methyl-3-(methylsulfonyl)-1-phenyl-1H-pyrazol-5-yl)urea], the IC50 was under 100 nM. In the case of `COCCN1C[C@@H](NC(=O)Nc2c(C)c(C(C)=O)nn2-c2ccccc2)[C@H](c2ccc(F)c(F)c2)C1` [Example 31, 1-(3-acetyl-4-methyl-1-phenyl-1H-pyrazol-5-yl)-3-((3S,4R)-4-(3,4-difluorophenyl)-1-(2-methoxyethyl)pyrrolidin-3-yl)urea] it was under 100 nM.
